Results: paper PMC12366525, “Characterization of allosteric modulators that disrupt androgen receptor co-activator protein-protein interactions to alter transactivation–Drug leads for metastatic castration resistant prostate cancer” (SLAS discovery : advancing life sciences R & D, 2023)

Experiments:
AR-LBD = target: T1, AR-LBD (Homo sapiens, UniProt P10275); test: H^3-DHT radioligand competition binding assay; conditions: 10 nM H^3-DHT, recombinant His6-AR-LBD
T1 construct: The pET28a-AR-LBD (622–919) construct [78] was a gift; made in house
T1 sequence (P10275 622-919): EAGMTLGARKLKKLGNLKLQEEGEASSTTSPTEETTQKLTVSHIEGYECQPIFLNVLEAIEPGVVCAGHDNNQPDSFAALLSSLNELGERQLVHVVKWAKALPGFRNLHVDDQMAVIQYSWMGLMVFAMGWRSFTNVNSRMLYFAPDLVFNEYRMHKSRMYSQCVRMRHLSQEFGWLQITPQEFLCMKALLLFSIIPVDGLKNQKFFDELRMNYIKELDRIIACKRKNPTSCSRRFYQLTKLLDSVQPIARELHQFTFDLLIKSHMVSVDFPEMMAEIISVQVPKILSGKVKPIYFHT
Experimental: The His6-AR-LBD H^3-DHT competition binding assay has been described previously. Briefly, 96-well Cu^2+-coated plates (ThermoFisher) were incubated overnight at 4 °C with 5 μg per well His6-AR-LBD in 100 μL of PBS. Unbound His6-AR-LBD was aspirated, the plate was washed 3 × with 100 μL of 0.05% Tween 20 in PBS and then blocked with 100 μL of 1 mg/mL BSA in PBS for 1 h. After three more washes with 100 μL of PBS and 0.05% Tween 20, 40 μL of PBS was added to wells followed by 5 μL each of diluted compounds and 100 nM H^3-DHT transferred into the wells using a Matrix pipettor. Compounds were tested between 0.098 to 50 μM in the presence of 10 nM H^3-DHT. After 1 h, compounds and H^3-DHT were aspirated and washed 3 × with 0.05% Tween 20 in PBS; 100 μL of Microscint™−20 micro-scintillation cocktail buffer (Perkin Elmer, Waltham, MA) was added to each well, plates were sealed with adhesive plastic covers; and the counts per minute (CPMs) were captured in a TopCount NXT microtiter plate reader (Perkin Elmer, Waltham, MA).

PSA = test: Western blot of PSA expression in C4–2 cells; assay type: cell-based, human; conditions: for C4-2 cell lysates PSA Western Blot, relative to DMSO (100%): 10 nM DHT 24 h, 20 μM compound 3 h pre-exposure; for Effect on endogenous and DHT-enhanced PSA expression and secretion: C4–2 cells, 20 μM for 3 h prior to DMSO or 10 nM DHT, 24 h
Experimental: Cell lysate protein concentrations were determined in a bicinchoninic acid (BCA) assay. Equal amounts of cell protein were mixed with SDS-PAGE sample buffer and placed in a heat block at 100 °C for 5 min. The protein constituents of C4–2 cells were separated by SDS-PAGE on 10% separating gels, transferred to nitrocellulose membranes and western blots were probed overnight at 4 °C with a 1:1000 dilution of a rabbit anti-hPSA (Cell Signaling, Danvers, MA) primary antibody in Tris-buffered saline (TBS) Tween 20 (TBST) containing 5% non-fat milk. Membranes were washed 3x in TBST for 10 min, then incubated for 1 h at room temperature with a 1:10,000 dilution of the goat anti-rabbit IgG horse radish peroxidase (HRP) conjugated secondary antibody (Invitrogen, Carlsbad, CA) in TBST containing 5% non-fat milk. Western blots were then washed 3x in TBST and developed with Pierce enhanced chemiluminescence (ECL) western blotting substrate (Thermo Fisher Scientific, Waltham, MA). Images of western blot ECL bands were acquired on an iBright 1500 imaging system (Thermo Fisher Scientific, Waltham, MA) and quantified by iBright image analysis software.

AR = target: T2, AR (Homo sapiens, UniProt P10275, T878A); test: AlphaScreen cellular thermal shift assay (CETSA) for AR in C4–2 cells; assay type: cell-based; conditions: for Effect on AR thermal stability, AlphaScreen CETSA: 1 h at 37 °C prior to heat shock at 46 °C, hits and enzalutamide 20 μM, DHT 10 nM; for Effect on maximum efficacy of DHT-enhanced AR thermal stabilization / Right shift of the DHT EC50 for AR thermal stabilization: 20 or 50 μM compound pre-treatment
T2 construct: DHT-induced full length AR directed TA; endogenous in cells; host or cells: C4–2 castration resistant prostate cancer cells
T2 sequence (P10275 1-920 T878A): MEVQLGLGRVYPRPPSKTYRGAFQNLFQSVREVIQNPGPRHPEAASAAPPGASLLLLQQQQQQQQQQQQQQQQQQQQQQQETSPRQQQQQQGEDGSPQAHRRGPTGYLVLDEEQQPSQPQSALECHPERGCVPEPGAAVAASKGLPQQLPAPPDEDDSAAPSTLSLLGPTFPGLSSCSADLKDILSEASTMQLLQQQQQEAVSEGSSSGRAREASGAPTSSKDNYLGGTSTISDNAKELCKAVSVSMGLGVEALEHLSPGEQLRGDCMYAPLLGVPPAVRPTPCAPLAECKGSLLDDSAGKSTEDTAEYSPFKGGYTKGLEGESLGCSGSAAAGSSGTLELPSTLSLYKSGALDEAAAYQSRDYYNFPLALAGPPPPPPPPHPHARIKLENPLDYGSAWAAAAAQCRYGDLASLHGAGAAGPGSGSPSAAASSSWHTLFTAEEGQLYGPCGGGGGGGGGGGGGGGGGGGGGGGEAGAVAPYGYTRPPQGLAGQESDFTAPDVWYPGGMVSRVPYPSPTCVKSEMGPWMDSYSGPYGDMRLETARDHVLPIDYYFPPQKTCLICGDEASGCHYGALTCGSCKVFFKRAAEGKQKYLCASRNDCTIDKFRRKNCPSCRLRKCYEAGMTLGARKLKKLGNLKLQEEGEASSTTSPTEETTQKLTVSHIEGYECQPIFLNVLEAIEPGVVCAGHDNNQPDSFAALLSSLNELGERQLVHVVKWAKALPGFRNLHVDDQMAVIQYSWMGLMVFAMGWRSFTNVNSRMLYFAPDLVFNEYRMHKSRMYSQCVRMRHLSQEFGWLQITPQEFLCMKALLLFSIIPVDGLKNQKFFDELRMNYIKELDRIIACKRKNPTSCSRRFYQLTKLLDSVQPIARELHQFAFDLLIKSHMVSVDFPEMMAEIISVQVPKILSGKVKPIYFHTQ
Experimental: Mouse anti-hAR (BD Biosciences, San Jose, CA) and rabbit anti-hAR (MilliporeSigma, Burlington, MA) were diluted 1:330 and 1:1000 fold respectively in PBS containing 0.5 mg/mL BSA and 4 μL of the combined diluted AR antibody pair were added to 4 μL of the cell lysate supernatant in a 384-well plate and incubated in the dark for 30 min at room temperature. To each well of the 384-well plate 4 μL of a combined solution of anti-mouse IgG Alpha Donor and anti-rabbit IgG (Fc specific) AlphaLISA Acceptor beads suspended in 1x lysis buffer was added to yield a final donor and acceptor bead concentrations of 40 μg/mL and 10 μg/mL respectively.

SMILES | IC50 (AR-LBD) | Right shift of the DHT EC50 for AR thermal stabilization (AR) | C4-2 cell lysates PSA Western Blot, relative to DMSO (100%) (PSA) | Effect on endogenous and DHT-enhanced PSA expression and secretion (PSA) | Effect on AR thermal stability, AlphaScreen CETSA (AR) | Effect on maximum efficacy of DHT-enhanced AR thermal stabilization (AR)
Cc1ccccc1-c1cc(O)c2c(c1)CN(c1nc(C(N)=O)cs1)CCO2 [S1–1] | 43.7 µM |  | 22.1% | substantially reduced both endogenous and DHT-enhanced PSA expression and secretion | did not stabilize AR in the AlphaScreen assay but blocked DHT-enhanced AR thermal stabilization | 
Cc1ccccc1-c1cc(O)c2c(c1)CN(c1nccs1)CCO2 [S1–3] | > 100 µM |  |  |  |  | 
Cc1nsc(NC(=O)N2CCC(Sc3ccccc3C)CC2)n1 [S2–6] |  | > 10 fold | 0.9% | substantially reduced both endogenous and DHT-enhanced PSA expression and secretion | did not stabilize AR in the AlphaScreen assay but blocked DHT-enhanced AR thermal stabilization | reduced the maximum efficacy of DHT-enhanced AR thermal stabilization

More lines, main results first:

IC50 (AR-LBD) | Right shift of the DHT EC50 for AR thermal stabilization (AR) | SMILES | C4-2 cell lysates PSA Western Blot, relative to DMSO (100%) (PSA) | Effect on endogenous and DHT-enhanced PSA expression and secretion (PSA) | Effect on AR thermal stability, AlphaScreen CETSA (AR) | Effect on maximum efficacy of DHT-enhanced AR thermal stabilization (AR)
 | ≥ 10 fold | Cc1c(-c2ccccc2F)[nH]c2ccc(CNC(=O)CCc3cn[nH]c3)cc12 [S3–11] | 22.8% | substantially reduced both endogenous and DHT-enhanced PSA expression and secretion | did not stabilize AR in the AlphaScreen assay but blocked DHT-enhanced AR thermal stabilization | at 50 μM reduced the maximum efficacy of DHT
62.9 µM |  | Cc1c(-c2ccccc2F)[nH]c2ccc(CNC(=O)c3ccc(CO)o3)cc12 [S3–14] |  |  |  | 
